Data set [1] can be described thus: Acute toxicity (oral, general symptom and death observed for 7 days). The format is in vivo, mice (ddy strain, male). The following applies: mouse, in vivo; oral, mice, 7 days observation (Δ values); read-out: Acute toxicity, 50% lethal dose LD50. The method in brief:
(§1)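 Male ddy mice (20-25 g), fasted overnight, dosed orally with compound suspended in 0.25% carboxymethylcellulose; symptoms and deaths observed for 7 days. Lethal dose (mg/kg) derived from deaths/number tested; marked values are LD50.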

Data set [2] has as its system 10% dry-yeast suspension-induced fever of rats. Kind of data set: Anti-pyretic activity (dry-yeast induced fever, febril index). The conditions noted are these: oral, febril index up to 4 hours after administration, dose not stated. The format is in vivo, rats (Wistar strain, male). The procedure:
Next, several tests for determining the pharmacological properties, in that acute toxicity, anti-pyretic activity, analgesic activity and anti-inflammatory activity of the present 1,3,5-substituted biuret compounds of the formula (1) were conducted and the test results are shown in Table (2). In the tests, each compounds to be tested was used as a suspension in 0.25% carboxymethylcellulose solution. Methods for testing are explained as follows:
According to the method reported by Tanabe [Folia Pharmacologia Japonica, Vol. 73, pp. 803 (1977)], the Wistar strain of male rats (150-180 g body weight) were used as test animals. The rats were fasted overnight, and 1 ml/100 g (body weight) of 10% dry-yeast suspension were subcutaneously injected on the back of the rats. Five hours afte the injection, the test compound was administered orally, then the body temperature of the rat was measured time sequences. Anti-pyretic activity of the test compound was determined as the FI (febril index) by integrating pyrogenetic curve up to 4 hours after the administration of the test compound with time, and indicated as inhibitory ratio (%) shown by the following formula, [formula]

Data set [3] has as its system acetic acid-induced stretching symptom of mouse. The experiment in a line: Analgesic activity, acetic acid-induced stretching method. The format is in vivo, mice (ddy strain, male). The conditions noted are these: for ED50: oral, mice (Δ values; range in parentheses), read-out: Analgesic activity, acetic acid-induced stretching method, 50% effective dose ED50. The method in brief:
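Overnight-fasted male ddy mice (20-25 g) dosed orally at 100 mg/kg (0.25% CMC suspension); 0.7% acetic acid given i.p. 1 h later and stretching observed. Values are % inhibition; some entries from other doses, or ED50 (mg/kg).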

The subject of data set [4] is pain reaction of the mouse caused by a clamp. The experiment in a line: Analgesic activity, Haffner method. The format is in vivo, mice (ddy strain, male). The conditions noted are these: for ED50: Mus musculus, oral, mice (Δ values; range in parentheses), read-out: Analgesic activity, Haffner method, 50% effective dose ED50; for Analgesic activity, Haffner method, inhibitory ratio: mice. The method in brief: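 Male ddy mice weighing 20-25 g were fasted overnight, then given the test compound orally as a suspension in 0.25% carboxymethylcellulose solution. Forty-five minutes later, a threshold subcutaneous dose of morphine hydrochloride (1.5-2.5 mg/kg body weight) was injected. Pain reactions to a clamp were then observed over 1 hour. Analgesia was expressed as an inhibitory ratio (%) and as a 50% effective dose, ED50 (mg/kg body weight).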

The test system of data set [5] is carrageenin-induced inflammation of the hindpaw of the rat. Kind of data set: Anti-inflammatory activity, acute carrageenin-induced inflammatory test. The conditions noted are these: Rattus norvegicus, read-out: Anti-inflammatory activity, inflammation inhibitory ratio. The format is in vivo, rats (Wistar strain, male). The method in brief:
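Fasted male Wistar rats (150-180 g) dosed orally with 100 mg/kg compound suspended in 0.25% carboxymethylcellulose; 1 h later 0.1 ml of 1% carrageenin injected subcutaneously into hindpaw. Paw volume tracked over time; activity expressed as inflammation inhibitory ratio (%) at 3 hours post-injection.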

A further data set relates to ddy strain of male mice. Kind of data set: Acute toxicity (oral, general symptom and death observed for 7 days). The following applies: 2000 mg/kg oral, 7 days. The format is in vivo. The method in brief: as §1
Where [6] appears, read: 100 mg/kg oral, rats, 3 hours after carrageenin.
The mark [7] stands for this setting: po, read-out: Analgesic activity, acetic acid-induced stretching method, inhibitory ratio.

Where two headings read alike, the source gives them in different places.

A word on the LD50: it is the dose at which mortality reaches 50%. For orientation: ED50 means the midpoint of the dose-response relation.

Regarding `CNC(=O)N(C)C(=O)Nc1ccccc1` [Compound No. 3, 1,3-dimethyl-5-phenylbiuret], the LD50 at 168 h in data set [1] worked out at 1450 mg/kg. The “Anti-pyretic activity, inhibitory ratio” value in data set [2] amounted to 145%. Further, the ED50 in data set [3] stood at 35 mg/kg; in data set [4], 111 mg/kg. In addition, the inhibition in vivo at 100 mg/kg in data set [5] (setting [6]) amounted to 88%.

Take `CNC(=O)N(C)C(=O)Nc1ccc(OC)cc1` [Compound No. 8, 1,3-Dimethyl-5-(4-methoxyphenyl)-biuret]: the LD50 at 168 h in data set [1] was 1440 mg/kg. Moreover, the “Anti-pyretic activity, inhibitory ratio” value in data set [2] is reported as 110%. In addition, the inhibition in vivo at 100 mg/kg in data set [3] (100 mg/kg oral, mice, read-out: Analgesic activity, acetic acid-induced stretching method, inhibitory ratio) was found to be 87.5%; in data set [5] (setting [6]), 40%. Moreover, the “Analgesic activity, Haffner method, inhibitory ratio” value in data set [4] (100 mg/kg oral) amounted to 50%.

With `CNC(=O)N(C)C(=O)Nc1ccccn1` [Compound No. 14, 1,3-dimethyl-5-(2-pyridyl)biuret], the LD50 at 168 h in data set [1] was determined as 656 mg/kg. The inhibition in vivo at 100 mg/kg turned out to be 62.5% in data set [3] (setting [7]) and 54% in data set [5] (setting [6]). Besides, the ED50 in data set [4] was 145 mg/kg.

Consider `CNC(=O)N(C)C(=O)Nc1cccnc1` [Compound No. 15, 1,3-Dimethyl-5-(3-pyridyl)-biuret], for which, in data set [1], the LD50 at 168 h was found to be 1100 mg/kg. Further, in data set [2], the “Anti-pyretic activity, inhibitory ratio” value was determined as 94%. In data set [3], the ED50 was 44 mg/kg. Moreover, the “Analgesic activity, Haffner method, inhibitory ratio” value in data set [4] (100 mg/kg oral) came out at 62.5%. Further, in data set [5] (setting [6]), the inhibition in vivo at 100 mg/kg is 37%.

Take `CCNC(=O)N(C)C(=O)Nc1ccccc1` [Compound No. 31, 1-ethyl-3-methyl-5-phenylbiuret]: the LD50 at 168 h in data set [1] came to 1590 mg/kg. Besides, in data set [2], the “Anti-pyretic activity, inhibitory ratio” value stood at 149%. Also, the ED50 in data set [3] amounted to 70 mg/kg; in data set [4], 105 mg/kg. The inhibition in vivo at 100 mg/kg in data set [5] (setting [6]) amounted to 63%.

With `CCNC(=O)N(C)C(=O)Nc1cc(OC)c(OC)c(OC)c1` [Compound No. 37, 1-Ethyl-3-methyl-5-(3,4,5-trimethoxyphenyl)biuret], in data set [1], the LD50 at 168 h came out at 749 mg/kg. Besides, the “Anti-pyretic activity, inhibitory ratio” value in data set [2] came to 97%. The inhibition in vivo at 100 mg/kg in data set [3] (setting [7]) is 75%. For the same molecule, the ED50 in data set [4] stood at 46 mg/kg.

Take `CNC(=O)N(C)C(=O)Nc1ccc(Cl)cc1` [compound 6]: the LD50 at 168 h in data set [1] stood at 1240 mg/kg. In data set [2], the “Anti-pyretic activity, inhibitory ratio” value is given as 72%. In data set [3], the ED50 was found to be 40 mg/kg. Moreover, in data set [4] (100 mg/kg oral), the “Analgesic activity, Haffner method, inhibitory ratio” value is given as 50%. The inhibition in vivo at 100 mg/kg in data set [5] (po, 3 h) amounted to 43%.

For the molecule `CNC(=O)N(C)C(=O)Nc1ccc2c(c1)OCO2` [compound 9, 1,3-Dimethyl-5-(3,4-methylenedioxyphenyl)biuret], the 50% lethal dose (LD50) at 168 h in data set [1] worked out at 1080 mg/kg. Moreover, the “Anti-pyretic activity, inhibitory ratio” value in data set [2] worked out at 38%. Further, the results for the inhibition in vivo at 100 mg/kg in data set [3] (setting [7]) and in data set [5] (setting [6]) were 87.5% and 46%, respectively. Further, in data set [4] (100 mg/kg oral), the “Analgesic activity, Haffner method, inhibitory ratio” value is given as 25%.

Take `CNC(=O)N(C)C(=O)Nc1ccncc1` [compound 16]: the LD50 at 168 h in data set [1] was 1100 mg/kg. Also, the inhibition in vivo at 100 mg/kg in data set [3] (setting [7]) worked out at 62.5%; in data set [5] (setting [6]), 34%. For the same molecule, the “Analgesic activity, Haffner method, inhibitory ratio” value in data set [4] (100 mg/kg oral) came out at 25%.

For the molecule `CNC(=O)N(C)C(=O)Nc1ncccn1` [compound 19, 1,3-Dimethyl-5-(2-pyrimidinyl)biuret], in data set [1], the LD50 at 168 h was 1400 mg/kg. The “Anti-pyretic activity, inhibitory ratio” value in data set [2] is on record as 6%. The inhibition in vivo at 100 mg/kg in data set [3] (setting [7]) came to 50%. Besides, the “Analgesic activity, Haffner method, inhibitory ratio” value in data set [4] (100 mg/kg oral) is 37.5%.

As to `CCNC(=O)NC(=O)Nc1ccc(OC)cc1` [compound 28, 1-Ethyl-5-(4-methoxyphenyl)biuret], the median lethal dose (LD50) at 168 h in data set [1] stood at 1600 mg/kg. Further, the inhibition in vivo at 200 mg/kg in data set [3] (setting [7]) was determined as 37.5%; in data set [5] (200 mg/kg oral, rats, 3 hours after carrageenin) it was 75%. The “Analgesic activity, Haffner method, inhibitory ratio” value in data set [4] (200 mg/kg oral) turned out to be 37.5%.

In the case of `CCNC(=O)N(C)C(=O)Nc1ccc(OC)c(OC)c1` [compound 36, 1-Ethyl-3-methyl-5-(3,4-dimethoxyphenyl)biuret], the LD50 at 168 h in data set [1] is 833 mg/kg. The “Anti-pyretic activity, inhibitory ratio” value in data set [2] is 43%. Further, the inhibition in vivo at 100 mg/kg was determined as 50% in data set [3] (setting [7]) and 23% in data set [5] (po, 3 h). Moreover, the “Analgesic activity, Haffner method, inhibitory ratio” value in data set [4] (100 mg/kg oral) is given as 62.5%.

`CCNC(=O)N(C)C(=O)Nc1cccs1` [compound 40]: the median lethal dose (LD50) at 168 h in data set [1] came to 559 mg/kg. The “Anti-pyretic activity, inhibitory ratio” value in data set [2] came out at 42%. Moreover, the inhibition in vivo at 100 mg/kg in data set [3] (setting [7]) came out at 75%; in data set [5] (po, 3 h), 24%. Further, the “Analgesic activity, Haffner method, inhibitory ratio” value in data set [4] (100 mg/kg oral) came to 37.5%.

Turning to `C=CCNC(=O)NC(=O)Nc1ccccc1` [compound 44], in data set [1], the LD50 at 168 h stood at 1400 mg/kg. The inhibition in vivo at 100 mg/kg in data set [3] (setting [7]) amounted to 62.5%; in data set [5] (po, 3 h), 33%. Besides, the “Analgesic activity, Haffner method, inhibitory ratio” value in data set [4] (100 mg/kg oral) is 50%.

As for `CN(C(=O)Nc1ccccc1)C(=O)NC(C)(C)C` [compound 51, 1-tert-Butyl-3-methyl-5-phenylbiuret], the “Acute toxicity, death number of mice/number of mice tested” value in the data set on ddy strain of male mice is on record as 0/4. The “Anti-pyretic activity, inhibitory ratio” value in data set [2] is listed as 83%. In addition, the inhibition in vivo at 100 mg/kg worked out at 50% in data set [3] (setting [7]) and 34% in data set [5] (setting [6]). Further, the “Analgesic activity, Haffner method, inhibitory ratio” value in data set [4] (100 mg/kg oral) was 37.5%.
